# Reference: patent US20250066319A1, “NOVEL ACID ADDITION SALT AND CRYSTALLINE FORM OF (2R, 3S)-2-(3-(4,5-DICHLORO-1H-BENZO[d]IMIDAZOL-1-YL)PROPYL)PIPERIDIN-3-OL” (Daewoong Pharmaceutical Co., Ltd., priority 2021, published 2025)
# Where a name gives a salt, the structure may show the parent alone.
# Columns and labels:
# [1] = Hygroscopicity test (weight change in desiccators of constant relative humidity); format: physicochemical; design: scale not given here; conditions: room temperature, one day
# Protocol: The hygroscopicity tests of the acid addition salts prepared in Examples 1-1 to 1-6 and Comparative Example 1 were performed.
# After one day, the change in weight was measured, then transferred to another desiccator and the previous experiment was repeated. At this time, for sorption analysis, the weight change was measured by moving the sample from a low-humidity desiccator to a high-humidity desiccator, and for desorption analysis, the weight change was measured by transferring the sample from a high-humidity desiccator with high humidity to a low-humidity desiccator.
# [2] = Differential scanning calorimetry analysis after severe test with respect to temperature; format: physicochemical; conditions: high temperature condition (60° C.), 1 week and 8 weeks; Monohydrochloride
# Protocol: For (2R,3S)-2-(3-(4,5-dichloro-1H-benzo[d]imidazol-1-yl)propyl)piperidin-3-ol monohydrochloride prepared in Example 1-1 and (2R,3S)-2-(3-(4,5-dichloro-1H-benzo[d]imidazol-1-yl)propyl)piperidin-3-ol dihydrochloride prepared in Comparative Example 1, each beaker was taken out 1 week and 8 weeks after the start of the test from the desiccator where the severe tests with respect to temperature were in progress, and the differential scanning calorimetry analysis was performed. At this time, the differential scanning calorimetry analysis was performed using a differential scanning calorimeter (DSC Q20, manufactured by TA Instruments) in a tightly closed pan under nitrogen purge at a scan rate of 10° C./min while raising the temperature from 20° C. to 300° C.
# [3] = Stability confirmation: severe test with respect to temperature, HPLC peak area of main component; format: physicochemical; conditions: 60° C., relative humidity less than 10%, Monohydrochloride
# Protocol: (§1) The acid addition salts prepared in some Examples and Comparative Examples were subjected to stability tests against high temperature and high humidity.
# Specifically, the severe tests with respect to temperature were performed by placing 50 mg of a sample in a vial, closing the lid, and then measuring the content of impurities using HPLC (Azura, KNAUER, P6.1 1 L, DAD 6.1 L) after 1 week, 2 weeks, 4 weeks, and 8 weeks while storing in a chamber at 60° C. and a relative humidity of less than 10%.
# (§2) At a fixed time after the start of the test, one vial or beaker was taken out from each time point (the number of samples per test: n=1), and impurities were analyzed using HPLC under the conditions shown in Table 3 below. Then, the peak area was determined through integration for all the detected peaks, and then the relative peak area (%) for the main component was calculated and expressed as an average value.
# [4] = target: T1, PRS protein (prolyl-tRNA synthetase, PRS portion of EPRS) (Homo sapiens, UniProt P07814); assay: PRS enzyme activity inhibition experiment; format: biochemical; conditions: [3H]proline, 37° C., 5 to 10 minutes
# T1 construct: the portion corresponding to PRS in cDNA of EPRS was subcloned; made in house
# T1 sequence (P07814 1007-1512 limits assumed): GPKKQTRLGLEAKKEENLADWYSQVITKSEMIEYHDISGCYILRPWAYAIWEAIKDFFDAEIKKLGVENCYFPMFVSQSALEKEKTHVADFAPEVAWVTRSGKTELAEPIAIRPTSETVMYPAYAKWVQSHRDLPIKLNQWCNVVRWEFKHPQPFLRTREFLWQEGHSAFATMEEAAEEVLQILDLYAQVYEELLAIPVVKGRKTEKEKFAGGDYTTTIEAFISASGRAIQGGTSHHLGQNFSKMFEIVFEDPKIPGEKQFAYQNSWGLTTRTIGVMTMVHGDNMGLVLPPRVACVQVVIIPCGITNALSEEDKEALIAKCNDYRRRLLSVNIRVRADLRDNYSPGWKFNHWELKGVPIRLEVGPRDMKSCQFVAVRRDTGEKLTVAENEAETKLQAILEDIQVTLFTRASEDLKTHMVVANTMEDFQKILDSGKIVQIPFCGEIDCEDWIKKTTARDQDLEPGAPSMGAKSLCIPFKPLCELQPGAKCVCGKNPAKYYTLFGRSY
# Protocol: IC50 values of PRS enzyme activity inhibition of the (2R,3S)-2-(3-(4,5-dichloro-1H-benzo[d]imidazol-1-yl)propyl)piperidin-3-ol monohydrochloride prepared in Example 1-1 were measured as follows.
# Specifically, the portion corresponding to PRS in cDNA of EPRS was subcloned, and the obtained high-purity PRS protein was purified and used in the experiment. The compounds (1 μM) prepared in Examples were added into the reaction buffer (20 mM KPO4 (pH 7.4), 6 mM MgAc, 5 mM ATP, […] tRNA, 0.5 mM DTT, 20 mCi[^3H]proline (1 mCi/mL)) and allowed to react at 37° C. for 5 to 10 minutes. The reaction was terminated with 3M paper that was in advance dried by addition of 5% TCA. The radioactivity was measured using a liquid scintillation counter. % Inhibition and IC50 values of the compounds were calculated and analyzed using Microsoft Excel or Sigma Plot 8.0.
# [5] = Stability confirmation: severe test with respect to moisture, HPLC peak area of main component; format: physicochemical; conditions: 93% RH, open beaker, Monohydrochloride
# Protocol: as §1
# And, the severe tests with respect to moisture were performed by placing 50 mg of a sample in a 10 ml beaker, and measuring the content of impurities using HPLC (Azura, KNAUER, P6.1 1 L, DAD 6.1 L) after 1 week, 2 weeks, 4 weeks, and 8 weeks while storing the sample in a 93% RH desiccator in a state that the lid was not closed so that the sample has sufficient contact with the moisture in the air.
# as §2
compound,measurement,setting,value
"O[C@H]1CCCN[C@@H]1CCCn1cnc2c(Cl)c(Cl)ccc21 [Example 1-1, (2R,3S)-2-(3-(4,5-dichloro-1H-benzo[d]imidazol-1-yl)propyl)piperidin-3-ol Monohydrochloride]","weight change, desorption","[1]; 11% RH, Monohydrochloride",100.8
same,"weight change, desorption","[1]; 33% RH, Monohydrochloride",101.2
same,"weight change, desorption","[1]; 54% RH, Monohydrochloride",100.8
same,"weight change, desorption","[1]; 75% RH, Monohydrochloride",101.7
same,"weight change, sorption",[1]; 11% RH,100
same,"weight change, sorption","[1]; 33% RH, Monohydrochloride",100
same,"weight change, sorption","[1]; 54% RH, Monohydrochloride",101
same,"weight change, sorption","[1]; 75% RH, Monohydrochloride",101.6
same,"weight change, sorption","[1]; 93% RH, Monohydrochloride",101.6
same,change in differential scanning calorimetry analysis pattern,[2],does not show any change in differential scanning calorimetry analysis pattern
same,relative peak area for the main component (HPLC),[3]; after 1 week,99.9%
same,relative peak area for the main component (HPLC),[3]; after 2 weeks,99.8%
same,relative peak area for the main component (HPLC),[3]; after 4 weeks,99.9%
same,relative peak area for the main component (HPLC),[3]; after 8 weeks,99.8%
same,relative peak area for the main component (HPLC),[3]; initial,99.9%
same,IC50,[4],74 nM
same,relative peak area for the main component (HPLC),[5]; after 1 week,99.8%
same,relative peak area for the main component (HPLC),[5]; after 2 weeks,99.9%
same,relative peak area for the main component (HPLC),[5]; after 4 weeks,99.8%
same,relative peak area for the main component (HPLC),[5]; after 8 weeks,99.9%
same,relative peak area for the main component (HPLC),[5]; initial,99.9%
